Earlier results, collected in patent US7273889B2, “NMDA receptor antagonist formulation with reduced neurotoxicity” (Innovative Drug Delivery Systems, Inc., priority 2002, dated 2007).
Structures can show the parent of a compound that is named as a salt.

Experiments:
[1] = tested on: patients; details: use as an anesthetic agent
[2] = tested on: spinal cord of the animals; details: multiple dose, intrathecally administered
[3] = at a pH up to 10

Compound: CNC1(c2ccccc2Cl)CCCCC1=O (stereo not drawn) [ketamine hydrochloride]
- occurrence of postoperative confusional states (emergence reactions) [1]: approximately 12% of patients

Compound: CNC1(c2ccccc2Cl)CCCCC1=O (stereo not drawn) [preservative-free ketamine, ketamine]
- neurotoxic effect [2]: without neurotoxic effect

Compound: benzalkonium chloride
- stability [3]: stable at room temperature
